Measured values: patent US6979686B1, “Substituted pyrazoles as p38 kinase inhibitors” (Pharmacia Corporation, priority 2001, dated 2005)
Where two headings read alike, the source gives them in different places.

Legend:
[1] = test system: TNF alpha, BALB/c mice injected with LPS; assay: Mouse model of LPS-induced TNF alpha production; format: in vivo; settings: for mLPS 8 h percent inhibition: head '8 h'
Procedure: Mouse Model of LPS-induced TNF Alpha Production:
TNF alpha was induced in 10-12 week old BALB/c female mice by tail vein injection with 100 ng lipopolysaccharide (from S. Typhosa) in 0.2 ml saline. One hour later mice were bled from the retroorbital sinus and TNF concentrations in serum from clotted blood were quantified by ELISA.
Efficacy was determined at each time point as percent inhibition of serum TNF levels relative to LPS injected mice that received vehicle only.
In vivo assessment of the ability of the compounds to inhibit LPS-stimulated TNP release in the mouse is shown in the column identified as: • “Mouse LPS Model, % TNF inhib @ dose @ predose time” wherein in the dose is milligram per kilogram (mpk) administered by oral gavage and the predose time indicates the number of hours before LPS challenge when the compound is administered.

human p38 kinase alpha = biological target: T1, human p38 kinase alpha (Homo sapiens, UniProt Q16539); assay: p38 kinase in vitro assay, phosphorylation of biotinylated PHAS-I with 32P-ATP; format: biochemical; settings: for IC50: read-out: P38 alpha kinase IC50; for P38 alpha kinase % inhib @ conc. (uM): @ 1.0 uM
T1 construct: GST (N, cleaved yes); made in house; host or cells: E. coli DH10B

[2] = test system: TNF-α, rats challenged with LPS; assay: Rat assay, LPS-stimulated TNF release; format: in vivo; settings: 3 mpk oral gavage, −4 h before LPS challenge; for inhibition in vivo at 3 mg/kg: Rattus norvegicus, po, read-out: Rat LPS Model % inhib @ dose @ predose time
Procedure: The efficacy of the novel compounds in blocking the production of TNF also was evaluated using a model based on rats challenged with LPS. Male Harlen Lewis rats [Sprague Dawley Co.] were used in this model. Each rat weighed approximately 300 g and was fasted overnight prior to testing. Compound administration was typically by oral gavage (although intraperitoneal, subcutaneous and intravenous administration were also used in a few instances) 1 to 24 hours prior to the LPS challenge. Rats were administered 30 μg/kg LPS [salmonella typhosa, Sigma Co.] intravenously via the tail vein. Blood was collected via heart puncture 1 hour after the LPS challenge. Serum samples were stored at −20° C. until quantitative analysis of TNF-α by Enzyme Linked-Immuno-Sorbent Assay (“ELISA”) [Biosource]. Additional details of the assay are set forth in Perretti, M., et al., Br. J. Pharmacol. (1993), 110, 868-874, which is incorporated by reference in this application.
In vivo assessment of the ability of the compounds to inhibit LPS-stimulated TNF release in the rat is shown in the column identified as: • “Rat LPS Model, % TNF inhib dose @ predose time” wherein in the dose is milligram per kilogram (mpk) administered by oral gavage and the predose time indicates the number of hours before LPS challenge when the compound is administered.
In vivo assessment of the ability of the compounds to inhibit LPS-stimulated TNF release in the rat is shown in the column identified as: • “Rat LPS Model % Inhibition@dose@predose time” wherein the dose is milligram per kilogram (mpk) administered by oral gavage and the predose time indicates the number of hours before LPS challenge when the compound is administered.
In vitro p38 alpha kinase inhibitory data are shown in the column identified as “p38 alpha IC50 (μM)”. In vitro human whole blood assay data for measuring the ability of the compounds to inhibit TNF production in human whole blood stimulated with LPS are shown in the column identified as: “HWB IC50 (μM)”. In vivo assessment of the ability of the compounds to inhibit LPS-stimulated TNF-release in the rat is shown in the column identified as: “ratLPS/%Inh@dose(mg/kg)”, wherein the dose is in milligram per kilogram (mg/kg) administered by oral gavage, 4 hours before LPS challenge.

[3] = test system: TNF-α, U937 human histiocytic lymphoma cell line; assay: LPS stimulation of TNF production by U937 cells; format: cell-based
Procedure, shortened: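 U937 cells differentiated 24 h with 20 ng/ml PMA, rested 24-48 h, used at 2 million cells/ml. Compounds in 0.1% DMSO final; LPS (E. coli, 100 ng/ml final) stimulation for 4 h at 37° C. Released TNF-α measured by ELISA; IC50 (μM).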

[4] = 30 mpk oral gavage, −6 h before LPS challenge
[5] = in vitro P38-alpha kinase inhibition
[6] = Table 6, mouse LPS, dose 30, oral gavage
[7] = Table 6, U937 cell assay, read-out: U937 IC50
[8] = TNF production, human U937 cells stimulated with LPS, read-out: U937 Cell IC50
[9] = Mus musculus, 30 mpk oral gavage, predose time not printed ("@ -"), read-out: Mouse LPS Model % TNF inhib @ dose @ predose time
[10] = Mus musculus, 30 mpk oral gavage, −6 h before LPS challenge, read-out: Mouse LPS Model % TNF inhib @ dose @ predose time

T1 sequence (Q16539 whole entry): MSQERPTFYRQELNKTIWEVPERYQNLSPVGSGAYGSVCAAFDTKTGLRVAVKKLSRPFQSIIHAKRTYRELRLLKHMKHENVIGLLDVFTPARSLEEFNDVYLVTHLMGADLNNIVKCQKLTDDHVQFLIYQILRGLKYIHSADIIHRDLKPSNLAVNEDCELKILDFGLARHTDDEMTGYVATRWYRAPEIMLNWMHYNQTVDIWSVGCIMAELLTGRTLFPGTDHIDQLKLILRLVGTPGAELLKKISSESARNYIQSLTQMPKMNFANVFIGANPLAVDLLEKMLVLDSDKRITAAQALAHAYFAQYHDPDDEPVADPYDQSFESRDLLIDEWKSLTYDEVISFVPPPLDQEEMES

## CS(=O)(=O)N1CCC(c2[nH]nc(-c3ccc(F)cc3)c2-c2ccncc2)CC1 [Example B-1376]
[1]; [4]
  Mouse LPS Model % TNF inhib @ dose @ predose time: 3.0% @ 30 mpk @ −6 H
Human p38 kinase alpha; in vitro P38-alpha kinase
  IC50: 9 nM

## CC(NC(=O)C(C)(C)C)c1[nH]nc(-c2ccc(F)cc2)c1-c1ccncc1 (stereo not drawn) [Example B-0601]
[2]
  inhibition in vivo at 3 mg/kg: 43%
Human p38 kinase alpha; [5]
  IC50: 89 nM

## CC(NS(=O)(=O)c1ccc(Cl)s1)c1[nH]nc(-c2ccc(F)cc2)c1-c1ccncc1 (stereo not drawn) [Example B-0650]
[2]
  inhibition in vivo at 3 mg/kg: 8%
Human p38 kinase alpha; [5]
  IC50: 6 nM

## Cc1ccc(F)cc1S(=O)(=O)NC(C)c1[nH]nc(-c2ccc(F)cc2)c1-c1ccncc1 (stereo not drawn) [Example B-0451]
[1]; Mus musculus, 30 mpk oral gavage, −5 h before LPS challenge, read-out: Mouse LPS Model % TNF inhib @ dose @ predose time
  inhibition in vivo at 30 mg/kg: 42%
Human p38 kinase alpha; [5]
  IC50: 71 nM

## CC(NS(=O)(=O)c1cccc(Cl)c1)c1[nH]nc(-c2ccc(F)cc2)c1-c1ccncc1 (stereo not drawn) [Example B-0639]
[2]
  inhibition in vivo at 3 mg/kg: 50%
Human p38 kinase alpha; [5]
  IC50: 51 nM

## OCCn1cc(-c2ccnc(NCc3ccc(F)cc3)c2)c(-c2ccc(F)cc2)n1 [Example A-289, 3-(4-fluorophenyl)-4-[2-[[(4-fluorophenyl)methyl]amino]-4-pyridinyl]-1H-pyrazole-1-ethanol]
[1]; [6]
  mLPS 8 h percent inhibition: 44%
[3]; [7]
  IC50: 140 nM

## O=C(c1ccc(F)cc1)N1CCC(c2[nH]nc(-c3ccc(F)cc3)c2-c2ccncc2)CC1 [Example B-1360]
[2]
  inhibition in vivo at 3 mg/kg: 54%

## C=CCOC(=O)NCCCc1[nH]nc(-c2ccc(F)cc2)c1-c1ccncc1 [Example B-1162]
[1]; [4]
  Mouse LPS Model % TNF inhib @ dose @ predose time: 40% @ 30 mpk @ −6 h
[3]; [8]
  IC50: 590 nM
Human p38 kinase alpha
  P38 alpha kinase % inhib @ conc. (uM): 79.0% @

## O=C(c1ccccc1F)N1CCC(c2[nH]nc(-c3ccc(F)cc3)c2-c2ccncc2)CC1 [Example B-1372]
[1]; [9]
  inhibition in vivo at 30 mg/kg: 48%
[3]; Homo sapiens, U-937, TNF production, human U937 cells stimulated with LPS, read-out: U937 Cell IC50
  IC50: 410 nM
Human p38 kinase alpha; in vitro P38-alpha kinase
  IC50: < 100 nM

## CC(=O)N1CCC(c2[nH]nc(-c3ccc(F)cc3)c2-c2ccncc2)CC1 [Example B-1363]
[1]; [4]
  Mouse LPS Model % TNF inhib @ dose @ predose time: 51.0% @ 30 pmk @
[2]
  Rat LPS Model % inhib @ dose @ predose time: 53% @ 3 mpk @ −4 h
Human p38 kinase alpha; in vitro P38-alpha kinase
  IC50: 9 nM

## Cc1ccc(S(=O)(=O)NC(C)c2[nH]nc(-c3ccc(F)cc3)c2-c2ccncc2)cc1 (stereo not drawn) [Example B-0576]
[2]
  inhibition in vivo at 3 mg/kg: 65%
Human p38 kinase alpha; [5]
  IC50: 68 nM

## CNC(=O)NC(C)c1[nH]nc(-c2ccc(F)cc2)c1-c1ccncc1 (stereo not drawn) [Example B-0585]
[1]; [10]
  inhibition in vivo at 30 mg/kg: 50%
Human p38 kinase alpha; [5]
  IC50: 830 nM

## COc1ccc(S(=O)(=O)NC(C)c2[nH]nc(-c3ccc(F)cc3)c2-c2ccncc2)cc1 (stereo not drawn) [Example B-0574]
[2]
  inhibition in vivo at 3 mg/kg: 37%

## O=C(NCCCc1[nH]nc(-c2ccc(F)cc2)c1-c1ccncc1)c1ccc(F)cc1 [Example B-1161]
[1]; [4]
  Mouse LPS Model % TNF inhib @ dose @ predose time: 40% @ 30 mpk @ −6 h
[2]
  Rat LPS Model % inhib @ dose @ predose time: 45% @ 3 mpk @ −4 h
Human p38 kinase alpha
  P38 alpha kinase % inhib @ conc. (uM): 64.0% 2

## CC(C)C(=O)NC(C)c1[nH]nc(-c2ccc(F)cc2)c1-c1ccncc1 (stereo not drawn) [Example B-0532]
[1]; [10]
  inhibition in vivo at 30 mg/kg: 41%
[3]; Homo sapiens, U-937, TNF production in human U937 cells stimulated with LPS, read-out: U937 Cell IC50
  IC50: 1010 nM
Human p38 kinase alpha; [5]
  IC50: 450 nM

## CCN(CC)CCn1cc(-c2ccnc(F)c2)c(-c2ccc(F)cc2)n1 [Example A-278, N,N-diethyl-3-(4-fluorophenyl)-4-(2-fluoro-4-pyridinyl)-1H-pyrazole-1-ethanamine]
[1]; [6]
  mLPS 8 h percent inhibition: 62%

## O=C(NCCCc1[nH]nc(-c2ccc(F)cc2)c1-c1ccncc1)c1ccccc1I [Example B-1159]
[1]; [4]
  Mouse LPS Model % TNF inhib @ dose @ predose time: 60% @ 30 mpk @ −6 h
Human p38 kinase alpha
  P38 alpha kinase % inhib @ conc. (uM): 66.0% @

## OCCNc1cc(-c2c[nH]nc2-c2ccc(F)cc2)ccn1 [Example A-280]
[1]; [6]
  mLPS 8 h percent inhibition: 15%

## C#CCNc1[nH]nc(-c2ccc(F)cc2)c1-c1ccncc1 [Example A-288, 5-(4-fluorophenyl)-N-2-propynyl-4-(4-pyridinyl)-1H-pyrazol-3-amine]
[1]; [6]
  mLPS 8 h percent inhibition: 40%

## Cn1cc(-c2ccnc(F)c2)c(-c2ccc(F)c(F)c2)n1 [Example A-260, 4-[3-(3,4-difluorophenyl)-1-methyl-1H-pyrazol-4-yl]-2-fluoropyridine]
[1]; [6]
  mLPS 8 h percent inhibition: 47%

## OCCn1cc(-c2ccnc(NCc3ccc(F)cc3)c2)c(-c2ccc(F)cc2)n1 [Example A-283, 3 (or 5)-(4-fluorophenyl)-4-[2-[[(4-fluorophenyl)methyl]amino]-4-pyridinyl]-1H-pyrazole-1-ethanol]
[1]; [6]
  mLPS 8 h percent inhibition: −20%
[3]; [7]
  IC50: 800 nM

## CC(=O)OCC(=O)NCCCc1[nH]nc(-c2ccc(F)cc2)c1-c1ccncc1 [Example B-1158]
[1]; [4]
  Mouse LPS Model % TNF inhib @ dose @ predose time: 53% @ 30 mpk @ −6 h
[3]; [8]
  IC50: 680 nM
Human p38 kinase alpha
  P38 alpha kinase % inhib @ conc. (uM): 74% @

## Fc1ccc(CNc2cc(-c3cn(CCN4CCOCC4)nc3-c3ccc(F)cc3)ccn2)cc1 [Example A-276, N-[(4-fluorophenyl)methyl]-4-[3(or 5)-(4-fluorophenyl)-1-[[2-(4-morpholinyl)ethyl]-1H-pyrazol-4-yl]-2-pyridinamine]
[1]; [6]
  mLPS 8 h percent inhibition: −24%
[3]; [7]
  IC50: 450 nM

## Cn1cc(-c2ccncc2)c(-c2ccc3c(c2)OCO3)n1 [Example A-231, 4-[3-(1,3-benzodioxol-5-y)-1-methyl-1H-pyrazol-4-yl]pyridine]
[1]; [6]
  mLPS 8 h percent inhibition: 86%

## Fc1ccc(CNc2cc(-c3cn(CCN4CCOCC4)nc3-c3ccc(F)cc3)ccn2)cc1 [Example A-285, N-[(4-fluorophenyl)methyl]-4-[3-(4-fluorophenyl)-1-[2-(4-morpholinyl)ethyl]-1H-pyrazol-4-yl]-2-pyridinamine]
[1]; [6]
  mLPS 8 h percent inhibition: 11%
[3]; [7]
  IC50: 180 nM

## c1cc(-c2c[nH]nc2-c2ccc3c(c2)OCO3)ccn1 [Example A-228, 4-[3-(1,3-benzodioxol-5-yl)-1H-pyrazol-4-yl]pyridine]
[1]; [6]
  mLPS 8 h percent inhibition: 32%

## COCC(=O)N1CCC(c2[nH]nc(-c3ccc(F)cc3)c2-c2ccncc2)CC1 [Example B-1368]
[1]; [9]
  inhibition in vivo at 30 mg/kg: 44%
Human p38 kinase alpha; in vitro P38-alpha kinase
  IC50: 31 nM

## Fc1ccc(-c2n[nH]cc2-c2ccnc3ccccc23)cc1 [Example A-291]
[1]; [6]
  mLPS 8 h percent inhibition: 36%

## Cn1cc(-c2ccncc2)c(-c2ccc(F)cc2)n1 [Example A-212, 4-[3-(4-fluorophenyl)-1-methyl-1H-pyrazol-4-yl]pyridine]
[1]; Table 6, mouse LPS, dose 10, oral gavage
  mLPS 8 h percent inhibition: 20%

## Cc1cccc(-c2nn(C)cc2-c2ccnc(C)c2)c1 [Example A-235, 2-methyl-4-[1-methyl-3 (or 5)-(3-methylphenyl)-1H-pyrazol-4-yl]pyridine]
[1]; Table 6, mouse LPS, 1 h before LPS, 30 mpk, oral gavage, read-out: mLPS 1 h, 30 mpk percent inhibition
  inhibition in vivo at 30 mg/kg: 56%

## Cn1cc(-c2ccncc2)c(-c2ccc(I)cc2)n1 [Example A-251, 4-[3-(4-iodophenyl)-1-methyl-1H-pyrazol-4-yl]pyridine]
[1]; Table 6, mouse LPS, dose not given, oral gavage
  mLPS 8 h percent inhibition: 32%

## OCCCNc1cc(-c2c[nH]nc2-c2ccc(F)cc2)ccn1 [Example A-282, 3-[[4-(3-(4-fluorophenyl)-1H-pyrazol-4-yl]-2-pyridinyl]amino]-1-propanol]
[1]; [6]
  mLPS 8 h percent inhibition: 30%
